Where “and” joins values, the source holds several entries; their conditions need not be identical. Identical values can stand only once.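 Protocol summary: plate cells (96-well), add compound at 5 concentrations, incubate 48 h, interpolate endpoints linearly. GI50 marks 50% less growth. TGI: concentration producing complete growth inhibition.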
How the values were obtained:
Assay in all cases: NCI tumour cell line growth inhibition, 48 h
786-0 renal = system: 786-0 renal
A498 renal = system: A498 renal
A549 NSCLC = system: A549 NSCLC
ACHN renal = system: ACHN renal
BT-549 breast = system: BT-549 breast
CAKI-1 renal = system: CAKI-1 renal
CCRF-CEM leukemia = system: CCRF-CEM leukemia
COLO 205 colon = system: COLO 205 colon
DLD-1 colon = system: DLD-1 colon
DMS 114 small cell lung = system: DMS 114 small cell lung
DMS 273 small cell lung = system: DMS 273 small cell lung
DU-145 prostate = system: DU-145 prostate
EKVX NSCLC = system: EKVX NSCLC
HCC-2998 colon = system: HCC-2998 colon
HCT-116 colon = system: HCT-116 colon
HCT-15 colon = system: HCT-15 colon
HL-60(TB) leukemia = system: HL-60(TB) leukemia
HOP-18 NSCLC = system: HOP-18 NSCLC
HOP-62 NSCLC = system: HOP-62 NSCLC
HOP-92 NSCLC = system: HOP-92 NSCLC
HT29 colon = system: HT29 colon
IGROV1 ovarian = system: IGROV1 ovarian
K-562 leukemia = system: K-562 leukemia
KM12 colon = system: KM12 colon
KM20L2 colon = system: KM20L2 colon
LOX IMVI melanoma = system: LOX IMVI melanoma
LXFL 529 NSCLC = system: LXFL 529 NSCLC
M14 melanoma = system: M14 melanoma
M19-MEL melanoma = system: M19-MEL melanoma
MALME-3M melanoma = system: MALME-3M melanoma
MDA-MB-435 = system: MDA-MB-435
MDA-N = system: MDA-N
MOLT-4 leukemia = system: MOLT-4 leukemia
NCI-H226 lung = system: NCI-H226 lung
NCI-H23 lung = system: NCI-H23 lung
NCI-H460 lung = system: NCI-H460 lung
NCI-H522 lung = system: NCI-H522 lung
OVCAR-3 ovarian = system: OVCAR-3 ovarian
OVCAR-4 ovarian = system: OVCAR-4 ovarian
OVCAR-5 ovarian = system: OVCAR-5 ovarian
OVCAR-8 ovarian = system: OVCAR-8 ovarian
P388 leukemia = system: P388 leukemia
P388/ADR leukemia = system: P388/ADR leukemia
RPMI-8226 leukemia = system: RPMI-8226 leukemia
RXF 393 renal = system: RXF 393 renal
RXF-631 renal = system: RXF-631 renal
SF-268 CNS = system: SF-268 CNS
SF-295 CNS = system: SF-295 CNS
SF-539 CNS = system: SF-539 CNS
SK-MEL-2 melanoma = system: SK-MEL-2 melanoma
SK-MEL-5 melanoma = system: SK-MEL-5 melanoma
SK-OV-3 ovarian = system: SK-OV-3 ovarian
SN12C renal = system: SN12C renal
SN12K1 renal = system: SN12K1 renal
SNB-19 CNS = system: SNB-19 CNS
SNB-75 CNS = system: SNB-75 CNS
SNB-78 CNS = system: SNB-78 CNS
SR leukemia = system: SR leukemia
SW-620 colon = system: SW-620 colon
TK-10 renal = system: TK-10 renal
U251 CNS = system: U251 CNS
UACC-257 melanoma = system: UACC-257 melanoma
UACC-62 melanoma = system: UACC-62 melanoma
UO-31 renal = system: UO-31 renal

## COc1cc(NS(C)(=O)=O)ccc1Nc1c2ccccc2nc2ccccc12
786-0 renal
  GI50: 458 nM and 279 nM and 270 nM
  TGI: 1.77 µM [middle of 8 runs]
A498 renal
  GI50: 1610 nM and 237 nM and 405 nM
A549 NSCLC
  GI50: 198 nM and 63.5 nM and 63.7 nM
ACHN renal
  GI50: 311 nM and 194 nM and 183 nM
BT-549 breast
  GI50: 3.14 µM [middle of 4 runs]
CAKI-1 renal
  GI50: 550 nM and 213 nM and 308 nM
CCRF-CEM leukemia
  GI50: 91.8 nM and 182 nM and 105 nM
COLO 205 colon
  GI50: 715 nM and 1110 nM
DLD-1 colon
  GI50: 3580 nM and 15300 nM
  TGI: 16200 nM and 35100 nM and 7540 nM
DMS 114 small cell lung
  GI50: 114 nM and 98.1 nM
  TGI: 6540 nM and 1520 nM and 4560 nM
DMS 273 small cell lung
  GI50: 53.5 nM and 128 nM
  TGI: 2720 nM and 12000 nM and 2020 nM
DU-145 prostate
  TGI: 2.59 µM [middle of 5 runs]
EKVX NSCLC
  GI50: 4770 nM and 3010 nM and 2840 nM
HCC-2998 colon
  GI50: 2400 nM and 2190 nM and 2340 nM
HCT-116 colon
  GI50: 820 nM and 368 nM and 424 nM
HCT-15 colon
  GI50: 1700 nM and 1380 nM and 1450 nM
HL-60(TB) leukemia
  GI50: 298 nM and 180 nM and < 37.9 nM
HOP-18 NSCLC
  GI50: 878 nM
  TGI: 5230 nM and 3510 nM
HOP-62 NSCLC
  GI50: 551 nM and 221 nM and 198 nM
HOP-92 NSCLC
  GI50: 2590 nM and 604 nM
HT29 colon
  GI50: 1370 nM and 888 nM and 991 nM
IGROV1 ovarian
  GI50: 1590 nM and 1440 nM and 826 nM
K-562 leukemia
  GI50: 1940 nM and 1870 nM and 624 nM
KM12 colon
  GI50: 1710 nM and 1680 nM
  TGI: 11.4 µM [middle of 8 runs]
KM20L2 colon
  GI50: 2180 nM and 3410 nM
  TGI: 12100 nM and 15300 nM and 5780 nM
LOX IMVI melanoma
  GI50: 351 nM and 306 nM and 310 nM
LXFL 529 NSCLC
  GI50: 5370 nM and 5420 nM
  TGI: 17900 nM and 22700 nM and 8920 nM
M14 melanoma
  GI50: 526 nM and 397 nM and 447 nM
M19-MEL melanoma
  GI50: 1540 nM and 5950 nM
  TGI: 17600 nM and 30800 nM and 8440 nM
MALME-3M melanoma
  GI50: 1270 nM and 511 nM and 515 nM
MDA-MB-435
  GI50: 3040 nM and 11000 nM and 7260 nM
MDA-N
  GI50: 4000 nM
  TGI: 7410 nM and 16600 nM and 11500 nM
MOLT-4 leukemia
  GI50: 181 nM and 45.3 nM and < 25 nM
NCI-H226 lung
  GI50: 256 nM and 260 nM and 220 nM
NCI-H23 lung
  GI50: 550 nM and 377 nM and 368 nM
NCI-H460 lung
  GI50: 58.7 nM and 33.8 nM and 42.5 nM
NCI-H522 lung
  GI50: 3270 nM and 552 nM
OVCAR-3 ovarian
  GI50: 4000 nM
  TGI: 7.66 µM [middle of 8 runs]
OVCAR-4 ovarian
  GI50: 12600 nM and 5080 nM
OVCAR-5 ovarian
  GI50: 8100 nM and 5640 nM and 6810 nM
OVCAR-8 ovarian
  GI50: 1330 nM and 904 nM and 1030 nM
P388 leukemia
  TGI: 391 nM
P388/ADR leukemia
  TGI: 5510 nM
RPMI-8226 leukemia
  GI50: 4070 nM and 2000 nM
RXF 393 renal
  GI50: 3370 nM and 2180 nM and 2230 nM
RXF-631 renal
  GI50: 388 nM and 431 nM
  TGI: 4300 nM and 2930 nM and 5340 nM
SF-268 CNS
  GI50: 1140 nM and 483 nM and 511 nM
SF-295 CNS
  GI50: 405 nM and 166 nM and 136 nM
SF-539 CNS
  GI50: 531 nM and 360 nM and 410 nM
  TGI: 2.27 µM [middle of 7 runs]
SK-MEL-2 melanoma
  GI50: 18000 nM and 4550 nM and 5730 nM
SK-MEL-5 melanoma
  GI50: 618 nM and 282 nM
SK-OV-3 ovarian
  GI50: 557 nM and 239 nM and 288 nM
SN12C renal
  GI50: 432 nM and 273 nM and 307 nM
SN12K1 renal
  TGI: 4040 nM
SNB-19 CNS
  GI50: 528 nM and 464 nM and 495 nM
SNB-75 CNS
  GI50: 221 nM and 335 nM and 341 nM
SNB-78 CNS
  GI50: 5790 nM and 10600 nM
  TGI: 17700 nM and 36500 nM and 14400 nM
SR leukemia
  GI50: 47.5 nM and 24.5 nM
SW-620 colon
  GI50: 1490 nM and 242 nM and 351 nM
TK-10 renal
  GI50: 4720 nM and 854 nM and 911 nM
U251 CNS
  GI50: 528 nM and 350 nM and 358 nM
UACC-257 melanoma
  GI50: 11800 nM and 5930 nM
UACC-62 melanoma
  GI50: 491 nM and 951 nM and 705 nM
UO-31 renal
  GI50: 1390 nM and 288 nM and 231 nM

From PubChem BioAssay (NCI)
